From patent publication US20180169045A1, “AMINO ACID COMPOSITIONS AND METHODS FOR THE TREATMENT OF LIVER DISEASES” (AXCELLA HEALTH INC., priority 2016, published 2018)

What was measured:
Format in all cases: cell-based
[1] = test system: Primary human hepatic stellate cells; assay: TNFα-induced IL-6 secretion in primary human hepatic stellate cells (ELISA); conditions: for IL-6 cytokine secretion, in words: primary human hepatic stellate cells from two donors, 3 ng/mL TNFα, 12 h
Procedure: (§1) Primary human hepatic stellate cells were obtained from Samsara Sciences based on the following criteria for selecting donors: adult age (between 18 and 50 years), normal BMI (>18.5 and <25), and absence of confounding liver disease. Primary human hepatic stellate cells grown in Complete HSC Medium to ˜80% confluence in T75 or T150 flasks below passage 10 were seeded into sterile, collagen I coated, 96-well optical plastic microplates (ThermoScientific, 152036) at 4000 cells per well ([…]) and incubated for 6 hours at 37° C., 5% CO2 in a humidified incubator.
(§2) After 6 hours, plates were removed from the incubator and the medium gently pipetted off and washed once with 150 μL per well DPBS. The DPBS was removed and the pretreatment medium (±single amino acid dropout, 1×HMDB DMEM+3% dialyzed FBS+0.2% Primocin, ±supplemental amino acid dose; see experiment for medium composition) was applied to the cells at 150 μL per well. Plates were returned to the incubator overnight, ˜14-15 hours.
(§3) After overnight pretreatment, the medium was removed from the cells, and the same pretreatment medium, now supplemented with 3 ng/mL TNFα is applied. Each plate contained 3 ng/mL TNFα in 1× human plasma amino acid (HMDB or PAA) concentration medium, 0 ng/mL in 1×HMDB, and 3 ng/mL TNFα+50 nM Bengamide in 1×HMDB to serve as controls. Plates were incubated for 12 hours at 37° C., 5% CO2.
(§4) After 12 hour stimulus with TNFα, supernatant was removed and frozen at −80° C. in two separate aliquots. Plates were washed gently once with DPBS and 100 μL per well of 1×HMDB DMEM+3% dialyzed FBS+0.2% Primocin+10% CCK-8 viability reagent (Dojindo). Plates were incubated for 1 hour at 37° C., 5% CO2.
(§5) After 1 hour of incubation, viability was measured on the Synergy plate reader (Absorbance at 977 (test), 900 (reference), and 450 (CCK8) nm). Immediately, the medium was removed and the plates were fixed with 70 μL per well 4% paraformaldehyde in PBS at room temperature for 20 minutes, followed by two 150 μL PBS washes, and stored with 100 μL per well PBS at 4° C. until immunofluorescence staining.
(§6) Human CCL2/MCP1 and Human IL-6 were measured by ELISA (Human […] DuoSet ELISA, R&D Systems; Human IL-6 DuoSet ELISA, R&D Systems) at 1/5 and 1/20 dilution in 1× Reagent Diluent (Reagent Ancillary Kit 2, R&D Systems). Data were normalized to the specific per well cell density determined by Hoechst stained nuclei count.

[2] = test system: Primary human hepatic stellate cells; assay: TNFα-induced MCP-1 secretion in primary human hepatic stellate cells (ELISA); conditions: for MCP-1 chemokine secretion, in words: primary human hepatic stellate cells from two donors, 3 ng/mL TNFα, 12 h
Procedure: as §1, §2, §3, §4, §5, §6

[3] = test system: human primary hepatocytes; assay: MCP1/CCL2 secretion in primary human hepatocytes exposed to free fatty acids + TNFα (ELISA); conditions: primary human hepatocytes from two healthy donors, 24 h
Procedure: Hepatocyte lipotoxicity appears to be a central driver of hepatic cellular injury via oxidative stress and endoplasmic reticulum (ER) stress. The ability of amino acids to influence steatosis (lipid accumulation) and inflammation in hepatocytes was assessed using human primary hepatocytes (Lonza, TRL).
Primary hepatocytes lot nos. from two healthy human donors were seeded on day 0 at density of 6e04 cells in 96 well optical microplates (Thermofisher) in hepatocyte plating media (William's E medium (Gibco) supplemented with 10% heat-inactivated FBS (Atlanta Bio), 2 mM Glutamax (Gibco), 1×ITS plus (R&D systems), and 0.2% Primocin (InVivoGen) and incubated for 6 hours at 37° C., 5% CO2. After 6 hours, cells were washed twice with 150 ul William's E medium and incubated overnight at 37° C., 5% CO2 with serum-free hepatocytes culture media (Hepatocytes defined medium (Corning)) supplemented with 5 ug human recombinant EGF (Corning), 2 mM Glutamax (Gibco), and 1× Penicillin/Streptomycin. On day 1, cells were washed twice with 150 μL per well William's E medium (Gibco) and incubated for 24h in the hepatocyte culture media in the same conditions described above.
On day 2, cells were washed twice with 150 ul DPBS 1× (Gibco) and maintained in amino acid-free WEM (US Biologicals) containing a defined custom amino acid concentration based on the mean physiological concentrations in blood. The values are published in the Human Metabolome Database (Wishart D S, Tzur D, Knox C, et al., HMDB: the Human Metabolome Database. Nucleic Acids Res. 2007 January; 35(Database issue):D521-6. 17202168; which is hereby incorporated by reference in its entirety). This custom media is supplemented with 11 mM Glucose, 0.272 mM Sodium Pyruvate, and a dose curve of defined amino acid compositions (i.e., vehicle, LIVRQ+N-acetylcysteine, LIVRQ, RQ+N-acetylcysteine, N-acetylcysteine alone, LIV, or individually with L-Leucine, L-Isoleucine, L-Valine, L-Arginine, L-Glutamine, and L-Cysteine) at various ranges of concentrations. Cells were maintained in this defined media for 24 hours at 37° C., 5% CO2.
After pre-treatment, cells were exposed to free fatty acids (FFA) at 250 uM with a ratio of 2:1 (Oleate:Palmitate) supplemented with TNF-α (Thermofisher) at 1 ng/ml or vehicle. Cells were incubated with the FFAs mixture and the different amino acids combinations for 24 hours at 37° C., 5% CO2. After 24 hours incubation, media was removed for cytokine analysis and replaced by fresh media containing the same stimulus conditions and amino acid concentrations. Cells were incubated for an additional 48 hours for a total of 72 hours of FFA and TNFα stimulation.
Human CCL2 (MCP-1) was measured by ELISA (Human […] DuoSet ELISA, R&D Systems) at 1/5 or 1/10 dilution in 1× Reagent Diluent (Reagent Ancillary Kit 2, R&D Systems). Data were normalized to the specific per well cell density determined by nuclei count stained by Hoechst 3342 (Life technologies) in the fluorescence microscopy described below.

## N=C(N)NCCC[C@H](N)C(=O)O [Arginine, L-Arginine]
[1]
  IL-6 cytokine secretion, in words: no significant effect
[2]
  MCP-1 chemokine secretion, in words: no significant impact
[3]
  MCP1/CCL2 secretion, in words: increased

## CC[C@H](C)[C@H](N)C(=O)O [Isoleucine, L-Isoleucine]
[1]; donor 1, Conc. 1328 μM
  Fold Change IL-6 Secretion Normalized Per Cell, Mean: 1.0233
[1]; donor 1, Conc. 3320 μM
  Fold Change IL-6 Secretion Normalized Per Cell, Mean: 1.1156
[1]; donor 1, Conc. 6639 μM
  Fold Change IL-6 Secretion Normalized Per Cell, Mean: 1.0859
[1]; donor 2, Conc. 1328 μM
  Fold Change IL-6 Secretion Normalized Per Cell, Mean: 1.1020
[1]; donor 2, Conc. 3320 μM
  Fold Change IL-6 Secretion Normalized Per Cell, Mean: 0.9096
[1]; donor 2, Conc. 6639 μM
  Fold Change IL-6 Secretion Normalized Per Cell, Mean: 1.1648
[1]
  IL-6 cytokine secretion, in words: no significant effect
[2]; donor 3, 1328 μM
  Fold Change MCP1 Secretion Normalized Per Cell, Mean: 1.5550
[2]; donor 3, 3320 μM
  Fold Change MCP1 Secretion Normalized Per Cell, Mean: 1.2169
[2]; donor 3, 6639 μM
  Fold Change MCP1 Secretion Normalized Per Cell, Mean: 1.2084
[2]; donor 4, 1328 μM
  Fold Change MCP1 Secretion Normalized Per Cell, Mean: 1.3338
[2]; donor 4, 3320 μM
  Fold Change MCP1 Secretion Normalized Per Cell, Mean: 0.8830
[2]; donor 4, 6639 μM
  Fold Change MCP1 Secretion Normalized Per Cell, Mean: 0.9103
[3]
  MCP1/CCL2 secretion, in words: did not have an effect

## CC(=O)N[C@@H](CS)C(=O)O [N-acetylcysteine]
[1]; donor 1, Conc. 1000 μM
  Fold Change IL-6 Secretion Normalized Per Cell, Mean: 0.7141
[1]; donor 1, Conc. 2500 μM
  Fold Change IL-6 Secretion Normalized Per Cell, Mean: 0.7354
[1]; donor 1, Conc. 5000 μM
  Fold Change IL-6 Secretion Normalized Per Cell, Mean: 0.6121
[1]; donor 1, Conc. 10000 μM
  Fold Change IL-6 Secretion Normalized Per Cell, Mean: 0.5716
[1]; donor 1, Conc. 5 X
  Fold Change IL-6 Secretion Normalized Per Cell, Mean: 0.7141
[1]; donor 1, Conc. 10 X
  Fold Change IL-6 Secretion Normalized Per Cell, Mean: 0.7354
[1]; donor 1, Conc. 20 X
  Fold Change IL-6 Secretion Normalized Per Cell, Mean: 0.6121
[1]; donor 1, Conc. 40 X
  Fold Change IL-6 Secretion Normalized Per Cell, Mean: 0.5716
[1]; donor 2, Conc. 1000 μM
  Fold Change IL-6 Secretion Normalized Per Cell, Mean: 0.9161
[1]; donor 2, Conc. 2500 μM
  Fold Change IL-6 Secretion Normalized Per Cell, Mean: 0.9180
[1]; donor 2, Conc. 5000 μM
  Fold Change IL-6 Secretion Normalized Per Cell, Mean: 0.8111
[1]; donor 2, Conc. 10000 μM
  Fold Change IL-6 Secretion Normalized Per Cell, Mean: 0.7064
[1]; donor 2, Conc. 5 X
  Fold Change IL-6 Secretion Normalized Per Cell, Mean: 0.9161
[1]; donor 2, Conc. 10 X
  Fold Change IL-6 Secretion Normalized Per Cell, Mean: 0.9180
[1]; donor 2, Conc. 20 X
  Fold Change IL-6 Secretion Normalized Per Cell, Mean: 0.8111
[1]; donor 2, Conc. 40 X
  Fold Change IL-6 Secretion Normalized Per Cell, Mean: 0.7064
[1]
  IL-6 cytokine secretion, in words: reduced IL-6 secretion in both donors but was only statistically significant in one of two donors
[2]; donor 4, 1000 μM
  Fold Change MCP1 Secretion Normalized Per Cell, Mean: 0.6437
[2]; donor 4, 2500 μM
  Fold Change MCP1 Secretion Normalized Per Cell, Mean: 0.8033
[2]; donor 4, 5000 μM
  Fold Change MCP1 Secretion Normalized Per Cell, Mean: 0.6728
[2]; donor 4, 10000 μM
  Fold Change MCP1 Secretion Normalized Per Cell, Mean: 0.5011
[2]; donor 4, Conc. 5 X
  Fold Change MCP1 Secretion Normalized Per Cell, Mean: 0.6437
[2]; donor 4, Conc. 10 X
  Fold Change MCP1 Secretion Normalized Per Cell, Mean: 0.8033
[2]; donor 4, Conc. 20 X
  Fold Change MCP1 Secretion Normalized Per Cell, Mean: 0.6728
[2]; donor 4, Conc. 40 X
  Fold Change MCP1 Secretion Normalized Per Cell, Mean: 0.5011
[2]
  MCP-1 chemokine secretion, in words: significantly reduced MCP-1 secretion in both donors
[3]
  MCP1/CCL2 secretion, in words: significantly decrease

## NC(=O)CC[C@H](N)C(=O)O [Glutamine, L-Glutamine]
[1]; donor 1, Conc. 749 μM
  Fold Change IL-6 Secretion Normalized Per Cell, Mean: 0.6320
[1]; donor 1, Conc. 3747 μM
  Fold Change IL-6 Secretion Normalized Per Cell, Mean: 0.5460
[1]; donor 1, Conc. 11242 μM
  Fold Change IL-6 Secretion Normalized Per Cell, Mean: 0.5136
[1]; donor 1, Conc. 22484 μM
  Fold Change IL-6 Secretion Normalized Per Cell, Mean: 0.5138
[1]; donor 2, Conc. 749 μM
  Fold Change IL-6 Secretion Normalized Per Cell, Mean: 0.7673
[1]; donor 2, Conc. 11242 μM
  Fold Change IL-6 Secretion Normalized Per Cell, Mean: 0.6478
[1]; donor 2, Conc. 22484 μM
  Fold Change IL-6 Secretion Normalized Per Cell, Mean: 0.5993
[1]
  IL-6 cytokine secretion, in words: significantly reduced IL-6 secretion in both donors
[2]; donor 3, 749 μM
  Fold Change MCP1 Secretion Normalized Per Cell, Mean: 0.7048
[2]; donor 3, 3747 μM
  Fold Change MCP1 Secretion Normalized Per Cell, Mean: 0.6036
[2]; donor 3, 11242 μM
  Fold Change MCP1 Secretion Normalized Per Cell, Mean: 0.6106
[2]; donor 3, 22484 μM
  Fold Change MCP1 Secretion Normalized Per Cell, Mean: 0.6212
[2]; donor 4, 749 μM
  Fold Change MCP1 Secretion Normalized Per Cell, Mean: 0.7782
[2]; donor 4, 3747 μM
  Fold Change MCP1 Secretion Normalized Per Cell, Mean: 0.6639
[2]; donor 4, 11242 μM
  Fold Change MCP1 Secretion Normalized Per Cell, Mean: 0.7129
[2]; donor 4, 22484 μM
  Fold Change MCP1 Secretion Normalized Per Cell, Mean: 0.7039
[2]
  MCP-1 chemokine secretion, in words: reduced MCP1 secretion in both donors but was only statistically significant in one of two donors
[3]
  MCP1/CCL2 secretion, in words: significantly decrease
